Experimental data: the supplement of paper PMC8253809

Assays:
[1] = test system: HABS (astrocyte control); assay: EC50 (inflection of fitted growth-inhibition curve) (log10 M)
Outline: (§1)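 Patient-derived pHGG/DIPG cell lines and astrocyte controls were grown on 1% Geltrex-coated 384-well plates and exposed by pin tool to a 10-point threefold dilution series (mean top concentration 35 μM), in triplicate. Exposure was 7 days (iAstro 3 days) at 37 °C, 5% CO2. CellTiter-Glo luminescence was log2-transformed, normalised per plate to % activity between negative (solvent) and positive control wells, and pooled. EC50 and maximal response (yFin) come from the lowest-AICc three- or four-parameter log-logistic fit.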

[2] = test system: DIPGX9 (diffuse intrinsic pontine glioma line); assay: as above
Outline: as §1

[3] = test system: DIPGX29 (H3.3 K27M diffuse intrinsic pontine glioma line); assay: as above
Outline: as §1

[4] = test system: SUDIPGXIX (diffuse intrinsic pontine glioma line); assay: as above
Outline: as §1

[5] = test system: HGGX2 (paediatric high-grade glioma line); assay: as above
Outline: as §1

[6] = test system: HGGX39 (paediatric high-grade glioma line); assay: as above
Outline: as §1

[7] = test system: SUDIPGIV (diffuse intrinsic pontine glioma line); assay: as above
Outline: as §1

[8] = test system: SUDIPGXVII (diffuse intrinsic pontine glioma line); assay: as above
Outline: as §1

[9] = test system: HGGX6 (H3.3 G34R paediatric high-grade glioma line); assay: as above
Outline: as §1

[10] = test system: DIPGX37 (H3.3 K27M diffuse intrinsic pontine glioma line); assay: as above
Outline: as §1

[11] = test system: SUDIPGXIII (diffuse intrinsic pontine glioma line); assay: as above
Outline: as §1

[12] = test system: HGGX42 (H3.3 G34R paediatric high-grade glioma line); assay: as above
Outline: as §1

[13] = test system: SUDIPGVI (diffuse intrinsic pontine glioma line); assay: as above
Outline: as §1

[14] = test system: DIPGX7 (H3.3 K27M diffuse intrinsic pontine glioma line); assay: as above
Outline: as §1

[15] = test system: iAstro (astrocyte control); assay: as above
Outline: as §1

[16] = test system: SUDIPGXXI (diffuse intrinsic pontine glioma line); assay: as above
Outline: as §1

[17] = test system: HABS; assay: maximal growth inhibition (yFin) relative to DMSO / staurosporine; higher = more efficacious
Outline: as §1

[18] = test system: DIPGX9; assay: as above
Outline: as §1

[19] = test system: DIPGX29; assay: as above
Outline: as §1

[20] = test system: SUDIPGXIX; assay: as above
Outline: as §1

[21] = test system: HGGX2; assay: as above
Outline: as §1

[22] = test system: HGGX39; assay: as above
Outline: as §1

[23] = test system: SUDIPGIV; assay: as above
Outline: as §1

[24] = test system: SUDIPGXVII; assay: as above
Outline: as §1

[25] = test system: HGGX6; assay: as above
Outline: as §1

[26] = test system: DIPGX37; assay: as above
Outline: as §1

[27] = test system: SUDIPGXIII; assay: as above
Outline: as §1

[28] = test system: HGGX42; assay: as above
Outline: as §1

[29] = test system: SUDIPGVI; assay: as above
Outline: as §1

[30] = test system: DIPGX7; assay: as above
Outline: as §1

[31] = test system: iAstro; assay: as above
Outline: as §1

[32] = test system: SUDIPGXXI; assay: as above
Outline: as §1

[33] = test system: HABS; assay: area under dose-response curve of % growth inhibition (log2 RLU vs DMSO / staurosporine), 1e-11 to 1e-4 M (% x log10 M); higher = more growth inhibition
Outline: (§2)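 On 1% Geltrex-coated 384-well plates, patient-derived pHGG/DIPG cell lines and astrocytes were treated in triplicate across 10 threefold dilutions (mean top concentration 35 μM) for 7 days, with iAstro treated for 3 days, at 37 °C, 5% CO2. Log2-transformed CellTiter-Glo luminescence was normalised per plate to % activity between solvent and positive controls. Area under the curve was obtained by the trapezoid rule from a log-logistic fit, or from a smoothing spline when that fit failed.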

[34] = test system: DIPGX9; assay: as above
Outline: as §2

[35] = test system: HGGX6; assay: as above
Outline: as §2

[36] = test system: DIPGX37; assay: as above
Outline: as §2

[37] = test system: SUDIPGXIII; assay: as above
Outline: as §2

SMILES | EC50 (log10 M) [1] | EC50 (log10 M) [2] | EC50 (log10 M) [3] | EC50 (log10 M) [4] | EC50 (log10 M) [5] | EC50 (log10 M) [6] | EC50 (log10 M) [7] | EC50 (log10 M) [8] | EC50 (log10 M) [9] | EC50 (log10 M) [10] | EC50 (log10 M) [11] | EC50 (log10 M) [12] | EC50 (log10 M) [13] | EC50 (log10 M) [14] | EC50 (log10 M) [15] | EC50 (log10 M) [16] | maximal growth inhibition [17] [%] | maximal growth inhibition [18] [%] | maximal growth inhibition [19] [%] | maximal growth inhibition [20] [%] | maximal growth inhibition [21] [%] | maximal growth inhibition [22] [%] | maximal growth inhibition [23] [%] | maximal growth inhibition [24] [%] | maximal growth inhibition [25] [%] | maximal growth inhibition [26] [%] | maximal growth inhibition [27] [%] | maximal growth inhibition [28] [%] | maximal growth inhibition [29] [%] | maximal growth inhibition [30] [%] | maximal growth inhibition [31] [%] | maximal growth inhibition [32] [%] | area under dose-response curve [33] | area under dose-response curve [34] | area under dose-response curve [35] | area under dose-response curve [36] | area under dose-response curve [37]
CCCCc1oc2ccc(NS(C)(=O)=O)cc2c1C(=O)c1ccc(OCCCN(CCCC)CCCC)cc1 [DRONEDARONE] | -4.77 | -5.04 | -5.42 | -5.12 | -5.19 | -5.01 | -5.15 | -4.97 | -5.14 | -5.38 | -4.89 | -5.41 | -4.87 | -5.35 | -5.29 | -5.77 | 119 | 123 | 104 | 123 | 116 | 106 | 122 | 122 | 93.4 | 99.7 | 117 | 119 | 121 | 120 | 104 | 127 | 91.3 | 128 | 106 | 138 | 105
CCOC(=O)CCNc1cc(N2CCc3ccccc3CC2)nc(-c2ccccn2)n1 [GSK-J4] | -4.98 | -4.99 | -4.87 | -4.97 | -5 | -4.98 | -5.01 | -4.99 | -4.85 | -4.9 | -4.82 | -4.87 | -4.9 | -5 | -5.51 | -5.9 | 72.9 | 94.2 | 69.6 | 98.3 | 100 | 63.1 | 61.5 | 55.2 | 62.6 | 56.1 | 48.1 | 100 | 44.1 | 46.7 | 69.4 | 112 | 71.4 | 103 | 63.1 | 67.7 | 61.1
O=C(c1ccc(Nc2nccc(-c3cc4ccccc4s3)n2)cc1)N1CCC(N2CCCC2)CC1 [IKK 16] | -4.75 | -4.84 | -5.53 | -4.87 | -5.4 | -4.92 | -5.15 | -4.85 | -4.83 | -5.52 | -4.69 | -5.62 | -4.85 | -5.27 | -5.16 | -5.37 | 124 | 122 | 117 | 128 | 104 | 119 | 115 | 118 | 106 | 120 | 114 | 107 | 104 | 108 | 94.4 | 120 | 93.1 | 105 | 88.2 | 183 | 107
CC(C)C[C@H](NC(=O)CNC(=O)c1cc(Cl)ccc1Cl)B(O)O [IXAZOMIB] | -7.43 | -7.68 | -6.63 | -7.71 | -6.73 | -7.57 | -7.6 | -7.05 | -7.27 | -7.94 | -7.52 | -7.31 | -7.33 | -7.71 | -7.92 | -7.9 | 84.1 | 82.6 | 77.5 | 88.1 | 86 | 84.7 | 89.4 | 81 | 79.4 | 79.9 | 77.3 | 70.6 | 73.9 | 81.4 | 67.4 | 86.4 | 288 | 304 | 260 | 315 | 266
Cc1c(C2CCN(CCc3ccccc3)CC2)noc1-c1ccc(Cl)cc1 [L-741,742] | -4.83 | -5.35 | -4.99 | -4.84 | -4.83 | -4.87 | -4.89 | -4.87 | -4.87 | -4.93 | -4.71 | -4.88 | -4.81 | -4.84 | -5 | -4.91 | 31.3 | 22.2 | 82.8 | 27.2 | 42.8 | 84 | 77.7 | 34.3 | 69.7 | 101 | 22.9 | 74.2 | 44.4 | 104 | 43.2 | 106 | 25.7 | 30.3 | 83.5 | 93.6 | 21.9
C[C@@]12OC(=O)[C@]1([C@@H](O)[C@@H]1C=CCCC1)NC(=O)[C@@H]2CCCl [MARIZOMIB] | -6.2 | -6.99 | -7.05 | -6.19 | -7.46 | -6.39 | -7.41 | -6.26 | -6.1 | -6.54 | -6.99 | -6.62 | -7.2 | -6.48 | -8.18 | -7.88 | 54.9 | 101 | 32.8 | 94.2 | 98.7 | 96.6 | 119 | 40.4 | 55.2 | 99.7 | 28.3 | 62.8 | 103 | 101 | 89.6 | 109 | 149 | 302 | 135 | 254 | 75.8
Nc1ccccc1NC(=O)c1ccc(CNc2nccc(-c3cccnc3)n2)cc1 [MOCETINOSTAT] | -5.43 | -6.26 | -5.81 | -5.46 | -5.76 | -5.37 | -5.43 | -5.48 | -5.51 | -5.51 | -5.46 | -5.52 | -5.98 | -5.42 | -5.85 | -6.53 | 94.6 | 103 | 78.5 | 100 | 96.5 | 96.8 | 104 | 93 | 84.8 | 96 | 74.1 | 78 | 97.2 | 104 | 38.2 | 126 | 135 | 232 | 129 | 146 | 117
O=C(Nc1ccc([N+](=O)[O-])cc1Cl)c1cc(Cl)ccc1O [NICOLSAMIDE] | -5.14 | -5.44 | -5.58 | -5.31 | -5.27 | -5.17 | -5.58 | -5.39 | -5.18 | -5.74 | -5.59 | -5.17 | -5.47 | -5.77 | -5.43 | -6.1 | 82.4 | 94 | 78.2 | 89 | 93.8 | 96.9 | 92.4 | 88.7 | 71.9 | 81.9 | 84.2 | 87.9 | 74.1 | 86 | 34.7 | 110 | 116 | 150 | 85.2 | 142 | 167
CCNC(=O)c1noc(-c2cc(C(C)C)c(O)cc2O)c1-c1ccc(CN2CCOCC2)cc1 [NVP-AUY922] | -7.28 | -7.48 | -6.44 | -7.59 | -7.61 | -7.42 | -7.28 | -7.41 | -7.36 | -7.47 | -7.11 | -7.81 | -7.36 | -5.82 | -6.08 | -6.65 | 86.9 | 84.4 | 80.4 | 76.3 | 49.9 | 80.3 | 55.9 | 63.9 | 29.6 | 82.2 | 61.3 | 34.4 | 35.2 | 48.5 | 51 | 115 | 285 | 294 | 99.4 | 285 | 213
CCCS(=O)(=O)c1nc(NC2CC2)cc(-c2ccc3c(ccn3C3CC(C)(C)NC(C)(C)C3)c2)n1 [NVS-1] | -5.42 | -5.62 | -6.09 | -5.92 | -5.95 | -5.57 | -5.52 | -5.75 | -5.83 | -5.99 | -5.49 | -5.95 | -5.79 | -5.64 | -5.72 | -5.34 | 86.9 | 88.9 | 82.2 | 90.7 | 86.7 | 82.8 | 90.5 | 88.4 | 79.3 | 79.6 | 88.4 | 88.2 | 88.4 | 95.1 | 83.2 | 104 | 124 | 152 | 145 | 159 | 163
